Laboratory results taken from patent publication US12478617B2, “Lipidated peptide inhibitors of interleukin-23 receptor” (JANSSEN BIOTECH, INC., priority 2021, dated 2025).
Starred links: 1 amine or outer side, 2 acyl side, 3 side chain; linkers in the order of their positions; H or OH if unused. Positions of bridges follow the written chain, without caps; N, C: chain ends. Non-standard residues stand in square brackets, D forms with d. Residues, ends and D or L forms follow the SMILES beside them. Groups on a side chain read outwards from the residue. *: point of attachment. Trp(7-Me) = Cc1cccc2c(C[C@H](N)C(=O)O)c[nH]c12; d(γGlu) = O=C(O)[C@@H](CCC(=O)[*:2])N[*:1]; C18 diacid = O=C(O)CCCCCCCCCCCCCCCCC(=O)*; γGlu = O=C(O)[C@H](CCC(=O)[*:2])N[*:1]; 2Nal = N[C@@H](Cc1ccc2ccccc2c1)C(=O)O; AEF = NCCOc1ccc(C[C@H](N)C(=O)O)cc1; PEG6 = NCCOCCOCCOCCOCCOCCOCCC(=O)O; Stearoyl = CCCCCCCCCCCCCCCCCC(=O)*; Palmitoyl = CCCCCCCCCCCCCCCC(=O)*; 3Pal = N[C@@H](Cc1cccnc1)C(=O)O; Pen = CC(C)(S)[C@H](N)C(=O)O; Thp = NC1(C(=O)O)CCOCC1; AEEA = NCCOCCOCC(=O)O; Sar = CNCC(=O)O

Biological target: T1, IL-23R (Homo sapiens, UniProt Q5VWK5)
T1 construct: HEK293 cells containing IL-23R, IL-12RP31 and a firefly luciferase reporter gene driven by a STAT-inducible promoter (Promega); host or cells: HEK293
T1 sequence (Q5VWK5 24-629): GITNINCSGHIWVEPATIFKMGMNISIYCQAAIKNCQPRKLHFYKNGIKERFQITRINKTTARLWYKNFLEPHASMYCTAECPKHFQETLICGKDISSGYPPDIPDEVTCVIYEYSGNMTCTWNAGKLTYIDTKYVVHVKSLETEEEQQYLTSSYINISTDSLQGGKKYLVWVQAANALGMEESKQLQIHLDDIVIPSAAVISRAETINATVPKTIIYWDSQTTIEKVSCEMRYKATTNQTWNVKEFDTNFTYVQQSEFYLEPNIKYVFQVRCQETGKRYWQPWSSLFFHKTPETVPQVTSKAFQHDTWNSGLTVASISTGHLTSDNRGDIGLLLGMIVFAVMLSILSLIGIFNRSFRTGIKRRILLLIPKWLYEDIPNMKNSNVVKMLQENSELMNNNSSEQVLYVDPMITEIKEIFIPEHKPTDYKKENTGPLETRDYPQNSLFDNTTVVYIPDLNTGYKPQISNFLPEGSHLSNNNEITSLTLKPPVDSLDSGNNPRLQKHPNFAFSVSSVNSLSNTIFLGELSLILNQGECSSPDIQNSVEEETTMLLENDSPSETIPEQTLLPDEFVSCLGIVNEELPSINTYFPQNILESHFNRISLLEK
Experiment: IL23R Reporter Assay
Format: cell-based
Method in brief: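 Luminescence from BioGlo, read after cells were moved to 20 °C, followed a 5 h incubation at 37 °C, 5% CO2 with DMSO-diluted test compounds.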

Row | IC50 [nM] | SMILES
1 | 0.13 | CC(=O)NCCCC[C@@H]1NC(=O)[C@H](Cc2c[nH]c3c(C)cccc23)NC(=O)[C@H]([C@@H](C)O)NC(=O)[C@H](CC(N)=O)NC(=O)[C@@H](NC(=O)[C@@H](CCCNC(=N)N)NC(C)=O)C(C)(C)SSC(C)(C)[C@@H](C(=O)N[C@@H](Cc2ccc(OCCN)cc2)C(=O)N[C@@H](Cc2ccc3ccccc3c2)C(=O)NC2(C(=O)N[C@@H](CCCCNC(=O)COCCOCCNC(=O)COCCOCCNC(=O)CC[C@@H](NC(=O)CCCCCCCCCCCCCCCCC(=O)O)C(=O)O)C(=O)N[C@@H](CC(N)=O)C(=O)N[C@@H](Cc3cccnc3)C(=O)N(C)CC(N)=O)CCOCC2)NC1=O [Example 55, MeCO-r-Pen*-N-T-7MeW-K(Ac)-Pen*-AEF-2Nal-THP-K(PEG2PEG2DgEC18OH)-N-3Pya-Sar-CONH2] (Ac-[dR][Pen]NT[Trp(7-Me)]K(Ac)[Pen][AEF][2Nal][Thp]K([AEEA-AEEA-d(γGlu)-C18 diacid])N[3Pal][Sar]-NH2; disulfide 2-7)
2 | 0.3 | CC(=O)NCCCC[C@@H]1NC(=O)[C@H](Cc2c[nH]c3c(C)cccc23)NC(=O)[C@H]([C@@H](C)O)NC(=O)[C@H](CC(N)=O)NC(=O)[C@@H](NC(=O)[C@@H](CCCNC(=N)N)NC(C)=O)C(C)(C)SSC(C)(C)[C@@H](C(=O)N[C@@H](Cc2ccc(OCCN)cc2)C(=O)N[C@@H](Cc2ccc3ccccc3c2)C(=O)NC2(C(=O)N[C@@H](CCCCNC(=O)COCCOCCNC(=O)COCCOCCNC(=O)[C@H]3CCCN3C(=O)CCCCCCCCCCCCCCCCC(=O)O)C(=O)N[C@@H](CC(N)=O)C(=O)N[C@@H](Cc3cccnc3)C(=O)N(C)CC(N)=O)CCOCC2)NC1=O [Example 57, MeCO-r-Pen*-N-T-7MeW-K(Ac)-Pen*-AEF-2Nal-THP-K(PEG2PEG2pC18OH)-N-3Pya-Sar-CONH2] (Ac-[dR][Pen]NT[Trp(7-Me)]K(Ac)[Pen][AEF][2Nal][Thp]K([AEEA-AEEA-dP-C18 diacid])N[3Pal][Sar]-NH2; disulfide 2-7)
3 | 0.042 | CC(=O)NCCCC[C@@H]1NC(=O)[C@H](Cc2c[nH]c3c(C)cccc23)NC(=O)[C@H]([C@@H](C)O)NC(=O)[C@H](CC(N)=O)NC(=O)[C@@H](NC(=O)[C@@H](CCCCNC(=O)CCOCCOCCOCCOCCOCCOCCNC(=O)CC[C@H](NC(=O)CCCCCCCCCCCCCCCCC(=O)O)C(=O)O)NC(C)=O)C(C)(C)SSC(C)(C)[C@@H](C(=O)N[C@@H](Cc2ccc(OCCN)cc2)C(=O)N[C@@H](Cc2ccc3ccccc3c2)C(=O)NC2(C(=O)N[C@@H](CCCCNC(C)=O)C(=O)N[C@@H](CC(N)=O)C(=O)N[C@@H](Cc3cccnc3)C(=O)N(C)CC(N)=O)CCOCC2)NC1=O [Example 60, MeCO-k(PEG6 gE C18OH)-Pen*-N-T-7MeW-K(Ac)-Pen*-AEF-2Nal-THP-K(Ac)-N-3Pya-Sar-CONH2] (Ac-[dK]([PEG6-γGlu-C18 diacid])[Pen]NT[Trp(7-Me)]K(Ac)[Pen][AEF][2Nal][Thp]K(Ac)N[3Pal][Sar]-NH2; disulfide 2-7)
4 | 0.13 | CC(=O)NCCCC[C@@H]1NC(=O)[C@H](Cc2c[nH]c3c(C)cccc23)NC(=O)[C@H]([C@@H](C)O)NC(=O)[C@H](CCCCNC(=O)CCOCCOCCOCCOCCOCCOCCNC(=O)CC[C@H](NC(=O)CCCCCCCCCCCCCCCCC(=O)O)C(=O)O)NC(=O)[C@@H](NC(=O)[C@@H](CCCNC(=N)N)NC(C)=O)C(C)(C)SSC(C)(C)[C@@H](C(=O)N[C@@H](Cc2ccc(OCCN)cc2)C(=O)N[C@@H](Cc2ccc3ccccc3c2)C(=O)NC2(C(=O)N[C@@H](CCCCNC(C)=O)C(=O)N[C@@H](CC(N)=O)C(=O)N[C@@H](Cc3cccnc3)C(=O)N(C)CC(N)=O)CCOCC2)NC1=O [Example 63, MeCO-r-Pen*-K(PEG6gEC18OH)-T-7MeW-K(Ac)-Pen*-AEF-2Nal-THP-K(Ac)-N-3Pya-Sar-CONH2] (Ac-[dR][Pen]K([PEG6-γGlu-C18 diacid])T[Trp(7-Me)]K(Ac)[Pen][AEF][2Nal][Thp]K(Ac)N[3Pal][Sar]-NH2; disulfide 2-7)
5 | 0.19 | CC(=O)NCCCC[C@@H]1NC(=O)[C@H](Cc2c[nH]c3c(C)cccc23)NC(=O)[C@H]([C@@H](C)O)NC(=O)[C@H](CC(N)=O)NC(=O)[C@@H](NC(=O)[C@@H](CCCNC(=N)N)NC(C)=O)C(C)(C)SSC(C)(C)[C@@H](C(=O)N[C@@H](Cc2ccc(OCCN)cc2)C(=O)N[C@@H](Cc2ccc3ccccc3c2)C(=O)NC2(C(=O)N[C@@H](CCCCNC(=O)COCCOCCNC(=O)COCCOCCNC(=O)[C@@H]3CCCN3C(=O)[C@@H]3CCCN3C(=O)[C@@H]3CCCN3C(=O)CCCCCCCCCCCCCCCCC(=O)O)C(=O)N[C@@H](CC(N)=O)C(=O)N[C@@H](Cc3cccnc3)C(=O)N(C)CC(N)=O)CCOCC2)NC1=O [Example 65, MeCO-r-Pen*-N-T-7MeW-K(Ac)-Pen*-AEF-2Nal-THP-K(PEG2PEG2PPPC18OH)-N-3Pya-Sar-CONH2] (Ac-[dR][Pen]NT[Trp(7-Me)]K(Ac)[Pen][AEF][2Nal][Thp]K([AEEA-AEEA-Pro-Pro-Pro-C18 diacid])N[3Pal][Sar]-NH2; disulfide 2-7)
6 | 0.037 | CCCCCCCCCCCCCCCCCC(=O)N[C@@H](CCC(=O)NCCCC[C@@H](NC(C)=O)C(=O)N[C@@H]1C(=O)N[C@@H](CC(N)=O)C(=O)N[C@@H]([C@@H](C)O)C(=O)N[C@@H](Cc2c[nH]c3c(C)cccc23)C(=O)N[C@@H](CCCCNC(C)=O)C(=O)N[C@H](C(=O)N[C@@H](Cc2ccc(OCCN)cc2)C(=O)N[C@@H](Cc2ccc3ccccc3c2)C(=O)NC2(C(=O)N[C@@H](CCCCNC(C)=O)C(=O)N[C@@H](CC(N)=O)C(=O)N[C@@H](Cc3cccnc3)C(=O)N(C)CC(N)=O)CCOCC2)C(C)(C)SSC1(C)C)C(=O)O [Example 68, MeCO-k(gEC18)-Pen*-N-T-7MeW-K(Ac)-Pen*-AEF-2Nal-THP-K(Ac)-N-3Pya-Sar-CONH2] (Ac-[dK]([γGlu-Stearoyl])[Pen]NT[Trp(7-Me)]K(Ac)[Pen][AEF][2Nal][Thp]K(Ac)N[3Pal][Sar]-NH2; disulfide 2-7)
7 | 0.13 | CCCCCCCCCCCCCCCC(=O)N[C@@H](CCC(=O)NCCCC[C@@H]1NC(=O)[C@@H](NC(=O)[C@@H](CCCNC(=N)N)NC(C)=O)C(C)(C)SSC(C)(C)[C@@H](C(=O)N[C@@H](Cc2ccc(OCCN)cc2)C(=O)N[C@@H](Cc2ccc3ccccc3c2)C(=O)NC2(C(=O)N[C@@H](CCCCNC(C)=O)C(=O)N[C@@H](CC(N)=O)C(=O)N[C@@H](Cc3cccnc3)C(=O)N(C)CC(N)=O)CCOCC2)NC(=O)[C@H](CCCCNC(C)=O)NC(=O)[C@H](Cc2c[nH]c3c(C)cccc23)NC(=O)[C@H]([C@@H](C)O)NC1=O)C(=O)O [Example 69, MeCO-r-Pen*-K(gEC16)-T-7MeW-K(Ac)-Pen*-AEF-2Nal-THP-K(Ac)-N-3Pya-Sar-CONH2] (Ac-[dR][Pen]K([γGlu-Palmitoyl])T[Trp(7-Me)]K(Ac)[Pen][AEF][2Nal][Thp]K(Ac)N[3Pal][Sar]-NH2; disulfide 2-7)
8 | 0.096 | CCCCCCCCCCCCCCCC(=O)N[C@@H](CCC(=O)NCCCC[C@H](NC(=O)C1(NC(=O)[C@H](Cc2ccc3ccccc3c2)NC(=O)[C@H](Cc2ccc(OCCN)cc2)NC(=O)[C@H]2NC(=O)[C@H](CCCCNC(C)=O)NC(=O)[C@H](Cc3c[nH]c4c(C)cccc34)NC(=O)[C@H]([C@@H](C)O)NC(=O)[C@H](CC(N)=O)NC(=O)[C@@H](NC(C)=O)C(C)(C)SSC2(C)C)CCOCC1)C(=O)N[C@@H](CC(N)=O)C(=O)N[C@@H](Cc1cccnc1)C(=O)N(C)CC(N)=O)C(=O)O [Example 75, MeCO-Pen*-N-T-7MeW-K(Ac)-Pen*-AEF-2Nal-THP-K(gEC16)-N-3Pya-Sar-CONH2] (Ac-[Pen]NT[Trp(7-Me)]K(Ac)[Pen][AEF][2Nal][Thp]K([γGlu-Palmitoyl])N[3Pal][Sar]-NH2; disulfide 1-6)
